Laboratory results: patent US20230278996A1, “YKL-40 INHIBITORS AND THEIR THERAPEUTIC APPLICATIONS” (Molecure S.A., priority 2022, published 2023)
Counter-ions that a name gives are not always drawn.

molecular target: YKL-40 (Homo sapiens (Human), UniProt P36222); experiment: YKL-40:4 assay, competitive chitin binding site AlphaScreen; details: competition with biotinylated compound 4 (20 nM), YKL-40-histag 2.5 nM
Sequence (P36222 22-383): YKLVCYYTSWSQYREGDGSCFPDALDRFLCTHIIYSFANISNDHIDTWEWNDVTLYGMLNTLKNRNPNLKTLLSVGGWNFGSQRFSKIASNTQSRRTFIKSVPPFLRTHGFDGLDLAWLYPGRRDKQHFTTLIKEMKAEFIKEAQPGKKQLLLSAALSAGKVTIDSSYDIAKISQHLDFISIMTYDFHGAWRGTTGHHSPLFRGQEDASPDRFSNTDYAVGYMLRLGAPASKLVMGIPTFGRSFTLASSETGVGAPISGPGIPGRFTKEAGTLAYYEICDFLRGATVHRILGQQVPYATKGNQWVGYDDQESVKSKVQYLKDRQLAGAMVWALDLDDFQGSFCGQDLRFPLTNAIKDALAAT

SMILES | IC50 [µM]
C[C@H](O)[C@H]1CN(C2CCN(c3ccccn3)CC2)[C@@H](Cc2ccc(Cl)cc2)CN1C [compound 105, (S)-1-((2R,5S)-5-(4-chlorobenzyl)-1-methyl-4-(1-(pyridin-2-yl)piperidin-4-yl)piperazin-2-yl)ethan-1-ol 2,2,2-trifluoroacetate] | < 0.1
Cc1cccc(N2CCC(N3C[C@H](C)OC[C@@H]3Cc3ccc(Cl)cc3)CC2)n1 [compound 135, (2S,5S)-5-(4-chlorobenzyl)-2-methyl-4-(1-(6-methylpyridin-2-yl)piperidin-4-yl)morpholine hydrochloride] | > 100
C[C@H]1CN(C2CCN(c3ncnc(N(C)C)n3)CC2)[C@@H](Cc2ccc(Cl)cc2)CO1 [compound 175, 4-(4-((2S,5S)-5-(4-chlorobenzyl)-2-methylmorpholino)piperidin-1-yl)-N,N-dimethyl-1,3,5-triazin-2-amine 2,2,2-trifluoroacetate] | > 100
C[C@H]1CN(C2CCN(c3nccc4ccccc34)CC2)[C@@H](Cc2ccc(Cl)cc2)CO1 [compound 116, (2S,5S)-5-(4-chlorobenzyl)-4-(1-(isoquinolin-1-yl)piperidin-4-yl)-2-methylmorpholine 2,2,2-trifluoroacetate] | > 100
C[C@H]1CN(C2CCN(c3noc(=O)[nH]3)CC2)[C@@H](Cc2ccc(Cl)cc2)CO1 [compound 165, 3-(4-((2S,5S)-5-(4-chlorobenzyl)-2-methylmorpholino)piperidin-1-yl)-1,2,4-oxadiazol-5(4H)-one 2,2,2-trifluoroacetate] | > 100
C[C@H]1CN(C2CCN(c3cc(C(C)(C)O)ccn3)CC2)[C@@H](Cc2ccc(Cl)cc2)CO1 [compound 131, 2-(2-(4-((2S,5S)-5-(4-chlorobenzyl)-2-methylmorpholino)piperidin-1-yl)pyridin-4-yl)propan-2-ol 2,2,2-trifluoroacetate] | > 100
CN1C[C@H](Cc2ccc(Cl)cc2)N(C2CCN(c3cc(Cl)ccn3)CC2)C[C@@H]1COc1ccc2ccccc2c1 [compound 84, (2S,5R)-2-(4-chlorobenzyl)-1-(1-(4-chloropyridin-2-yl)piperidin-4-yl)-4-methyl-5-((naphthalen-2-yloxy)methyl)piperazine 2,2,2-trifluoroacetate] | > 100
C[C@H]1CN(C2CCN(c3cncc(C(F)(F)F)n3)CC2)[C@@H](Cc2ccc(Cl)cc2)CO1 [compound 153, (2S,5S)-5-(4-chlorobenzyl)-2-methyl-4-(1-(6-(trifluoromethyl)pyrazin-2-yl)piperidin-4-yl)morpholine hydrochloride] | > 100
C[C@H]1CN(C2CCN(c3ccccc3)CC2)[C@@H](Cc2ccc(Cl)cc2)CO1 [Example 37, (2S,5S)-5-(4-chlorobenzyl)-2-methyl-4-(1-phenylpiperidin-4-yl)morpholine dihydrochloride] | > 100
C[C@H]1CN(C2CCN(c3c(F)cccc3C#N)CC2)[C@@H](Cc2ccc(Cl)cc2)CO1 [compound 118, 2-(4-((2S,5S)-5-(4-chlorobenzyl)-2-methylmorpholino)piperidin-1-yl)-3-fluorobenzonitrile 2,2,2-trifluoroacetate] | > 100
O=C1NCCN(C2CCN(c3ccccn3)CC2)[C@H]1Cc1ccc(Cl)cc1 [compound 149, (S)-3-(4-chlorobenzyl)-4-(1-(pyridin-2-yl)piperidin-4-yl)piperazin-2-one 2,2,2-trifluoroacetate] | > 100
C[C@H]1CN(C2CCN(c3cc(C(=O)O)ccn3)CC2)[C@@H](Cc2ccc(Cl)cc2)CO1 [compound 125, 2-(4-((2S,5S)-5-(4-chlorobenzyl)-2-methylmorpholino)piperidin-1-yl)isonicotinic acid 2,2,2-trifluoroacetate] | > 100
C[C@H]1CN(C2C[C@H]3CC[C@@H](C2)N3c2cc(Cl)ccn2)[C@@H](Cc2ccc(Cl)cc2)CO1 (stereo partly drawn) [compound 58, (2S,5S)-5-(4-chlorobenzyl)-4-((1R,5S)-8-(4-chloropyridin-2-yl)-8-azabicyclo[3.2.1]octan-3-yl)-2-methylmorpholine 2,2,2-trifluoroacetate] | > 100
C[C@H](O)CN1C[C@H](Cc2ccc(Cl)cc2)N(C2CCN(c3ccccn3)CC2)C[C@@H]1C [compound 104, (S)-1-((2S,5S)-5-(4-chlorobenzyl)-2-methyl-4-(1-(pyridin-2-yl)piperidin-4-yl)piperazin-1-yl)propan-2-ol 2,2,2-trifluoroacetate] | < 0.1
C[C@H]1CN(C2CCN(c3ncccc3C(N)=O)CC2)[C@@H](Cc2ccc(Cl)cc2)CO1 [compound 114, 2-(4-((2S,5S)-5-(4-chlorobenzyl)-2-methylmorpholino)piperidin-1-yl)nicotinamide 2,2,2-trifluoroacetate] | > 100

Next, values leading:

IC50 [µM] | SMILES
> 100 | Cc1noc(N2CCC(N3C[C@H](C)OC[C@@H]3Cc3ccc(Cl)cc3)CC2)n1 [compound 188, (2S,5S)-5-(4-chlorobenzyl)-2-methyl-4-(1-(3-methyl-1,2,4-oxadiazol-5-yl)piperidin-4-yl)morpholine 2,2,2-trifluoroacetate]
0.1 to 1 | C[C@H]1CN(C2CCN(c3ccc(Cl)cn3)CC2)[C@@H](Cc2ccc(Cl)cc2)CO1 [Example 11, (2S,5S)-5-(4-chlorobenzyl)-4-(1-(5-chloropyridin-2-yl)piperidin-4-yl)-2-methylmorpholine 2,2,2-trifluoroacetate]
> 100 | C[C@H]1CN(C2CCN(c3noc(C(F)(F)F)n3)CC2)[C@@H](Cc2ccc(Cl)cc2)CO1 [compound 164, (2S,5S)-5-(4-chlorobenzyl)-2-methyl-4-(1-(5-(trifluoromethyl)-1,2,4-oxadiazol-3-yl)piperidin-4-yl)morpholine 2,2,2-trifluoroacetate]
1 to 10 | C[C@H]1CN(C2CCN(c3cc(C(F)(F)F)ccn3)CC2)[C@@H](Cc2ccc(Cl)cc2)CO1 [Example 20, (2S,5S)-5-(4-chlorobenzyl)-2-methyl-4-(1-(4-(trifluoromethyl)pyridin-2-yl)piperidin-4-yl)morpholine 2,2,2-trifluoroacetate]
1 to 10 | C[C@H]1CN(C2CCN(c3ccnc(F)c3)CC2)[C@@H](Cc2ccc(Cl)cc2)CO1 [Example 15, (2S,5S)-5-(4-chlorobenzyl)-4-(1-(2-fluoropyridin-4-yl)piperidin-4-yl)-2-methylmorpholine 2,2,2-trifluoroacetate]
1 to 10 | O=C1CNC(=O)N1C[C@H]1CN(C2CCN(c3ncccn3)CC2)[C@@H](Cc2ccc(Cl)cc2)CO1 [compound 78, 3-(((2R,5S)-5-(4-chlorobenzyl)-4-(1-(pyrimidin-2-yl)piperidin-4-yl)morpholin-2-yl)methyl)imidazolidine-2,4-dione 2,2,2-trifluoroacetate]
1 to 10 | CN(C)CCN(C)C[C@H]1CN(C2CCN(c3ncccn3)CC2)[C@@H](Cc2ccc(Cl)cc2)CO1 [compound 72, N^1-(((2S,5S)-5-(4-chlorobenzyl)-4-(1-(pyrimidin-2-yl)piperidin-4-yl)morpholin-2-yl)methyl)-N^1,N^2,N^2-trimethylethane-1,2-diamine 2,2,2-trifluoroacetate]
1 to 10 | O[C@@H]1CCN(C[C@H]2CN(C3CCN(c4ncccn4)CC3)[C@@H](Cc3ccc(Cl)cc3)CO2)C1 [compound 73, (R)-1-(((2S,5S)-5-(4-chlorobenzyl)-4-(1-(pyrimidin-2-yl)piperidin-4-yl)morpholin-2-yl)methyl)pyrrolidin-3-ol 2,2,2-trifluoroacetate]
0.1 to 1 | O[C@H]1C[C@H]2CN(C3CCN(c4ncccn4)CC3)[C@@H](Cc3ccc(Cl)cc3)CN2C1 [Example 42, (3S,7S,8aS)-3-(4-chlorobenzyl)-2-(1-(pyrimidin-2-yl)piperidin-4-yl)octahydropyrrolo[1,2-α]pyrazin-7-ol 2,2,2-trifluoroacetate]
0.1 to 1 | Cc1ccnc(N2CCC(N3C[C@@H]4C[C@@H](O)CN4C[C@@H]3Cc3ccc(Cl)cc3)CC2)n1 [Example 41, (3S,7R,8aS)-3-(4-chlorobenzyl)-2-(1-(4-methylpyrimidin-2-yl)piperidin-4-yl)octahydropyrrolo[1,2-α]pyrazin-7-ol 2,2,2-trifluoroacetate]
0.1 to 1 | Cc1ccnc(N2CCC(N3C[C@H](C)OC[C@@H]3Cc3ccc(Cl)cc3)CC2)n1 [Example 39, (2S,5S)-5-(4-chlorobenzyl)-2-methyl-4-(1-(4-methylpyrimidin-2-yl)piperidin-4-yl)morpholine dihydrochloride]
10 to 100 | C[C@H]1CN(C2CCN(c3cc(O)ccn3)CC2)[C@@H](Cc2ccc(Cl)cc2)CO1 [compound 161, 2-(4-((2S,5S)-5-(4-chlorobenzyl)-2-methylmorpholino)piperidin-1-yl)pyridin-4-ol 2,2,2-trifluoroacetate]
0.1 to 1 | C[C@H]1CN(C2CCN(c3ccccn3)CC2)[C@@H](Cc2ccc(Cl)cc2)CN1CC(=O)N(C)C [compound 101, 2-((2S,5S)-5-(4-chlorobenzyl)-2-methyl-4-(1-(pyridin-2-yl)piperidin-4-yl)piperazin-1-yl)-N,N-dimethylacetamide]
0.1 to 1 | CO[C@H](C)CN1C[C@H](Cc2ccc(Cl)cc2)N(C2CCN(c3ccccn3)CC2)C[C@@H]1C [compound 107, (2S,5S)-2-(4-chlorobenzyl)-4-((R)-2-methoxypropyl)-5-methyl-1-(1-(pyridin-2-yl)piperidin-4-yl)piperazine 2,2,2-trifluoroacetate]
1 to 10 | CC1CC(N2C[C@H](C)OC[C@@H]2Cc2ccc(Cl)cc2)CCN1c1cc(Cl)ccn1 (stereo partly drawn) [Example 33, (2S,5S)-5-(4-chlorobenzyl)-4-(1-(4-chloropyridin-2-yl)-2-methylpiperidin-4-yl)-2-methylmorpholine 2,2,2-trifluoroacetate]
1 to 10 | C[C@H]1CN(C2CCN(c3nccc(C(F)(F)F)n3)CC2)[C@@H](Cc2ccc(Cl)cc2)CO1 [compound 146, (2S,5S)-5-(4-chlorobenzyl)-2-methyl-4-(1-(4-(trifluoromethyl)pyrimidin-2-yl)piperidin-4-yl)morpholine hydrochloride]
1 to 10 | C[C@H]1CN(C2CCN(c3cnccn3)CC2)[C@@H](Cc2ccc(Cl)cc2)CO1 [Example 12, (2S,5S)-5-(4-chlorobenzyl)-2-methyl-4-(1-(pyrazin-2-yl)piperidin-4-yl)morpholine 2,2,2-trifluoroacetate]
